The test system of data set [1] is GlucDH mut 2. The experiment in a line: Enzymatic reduction of Acetyl-cNAD by GlucDH mut 2 with glucose. Type of data set: biochemical. The following applies: 25° C., Tris-buffer pH 8.5, glucose, UV/VIS spectra after 30 min. As for the experimental part:
Acetyl-cNADH and for comparison cNAD, cNADP were reduced by using GlucDH mut 2 (WO2010/094632) using the following conditions:
A Dilution buffer (NaCl 0.2 mol/l; Tris 0.1 mol/l; pH 8.5) was prepared as follows: 11.7 g NaCl and 12.1 g Tris (=[…]) were dissolved in 900 ml bidest. water and the pH was adjusted to pH 8.5 by addition of HCL 1N and filled to 1.00 l with bidest. Water.
Glucose-solution: 2.00 g D(+)-Glucose-Monohydrate were dissolved in 10.0 ml bidest. water. The solution is ready for usage after 2 h at room temperature.
GlucDH2-stock-solution: 10.0 mg of the enzyme (Lyo) were dissolved in 1.00 ml Tris-buffer.
Reduction of Acetyl-cNAD-solution (15 mmol/l): 9.90 mg Acetyl-cNAD (Mw=659.47 g/mol) were dissolved in 1.00 ml bidest. water.
100 μl GlucDH2-stock-solution were dissolved in 0.90 ml dilution buffer (dilution factor=10).
1. The tempered (25° C.) reagent solutions were pipetted into a 1 cm plastic cuvette as follows:
(§1) After mixing and tempering to 25° C., the reaction was started by addition of 0.05 ml the above mentioned corresponding GlucDH2-solutions. An UV/VIS spectra was recorded after 30 min.

A short description of data set [2]: UV/VIS absorption spectrum after enzymatic reduction. It is filed as physicochemical. To be noted: FIG. 1, reduced form. As for the experimental part:
as §1
This is a significant advantage for redox-based assays, since it allows to reduce or avoid the interference from auto-fluorescent compounds comprised in (biological) samples

On to `CC(=O)c1ccc[n+]([C@@H]2C[C@H](COP(=O)([O-])OP(=O)(O)OC[C@H]3O[C@@H](n4cnc5c(N)ncnc54)[C@H](O)[C@@H]3O)[C@@H](O)[C@H]2O)c1` [Acetyl-cNAD], for which, in data set [1], the “coenzyme function for a dehydrogenase” value was “serves as a coenzyme for a dehyrogenase”. For the compound Acetyl-cNADH, the absorption maximum entry in data set [2] is “about 380 nm”.
